Measurements taken from publication PMC6327983, “Discovery of cyanopyridine scaffold as novel indoleamine-2,3-dioxygenase 1 (IDO1) inhibitors through virtual screening and preliminary hit optimisation” (Journal of Enzyme Inhibition and Medicinal Chemistry, 2019).

How the values were obtained:
ferric IDO1 = target: T1, ferric IDO1 (Homo sapiens, UniProt P14902); assay: Measurement of IDO1 absorbance spectra (UV–visible); type: binding; details: 20 µM compound, 5 µM IDO1, phosphate buffer pH 6.5; 406 nm in absence of compound
T1 construct: made in house
T1 sequence (P14902 whole entry): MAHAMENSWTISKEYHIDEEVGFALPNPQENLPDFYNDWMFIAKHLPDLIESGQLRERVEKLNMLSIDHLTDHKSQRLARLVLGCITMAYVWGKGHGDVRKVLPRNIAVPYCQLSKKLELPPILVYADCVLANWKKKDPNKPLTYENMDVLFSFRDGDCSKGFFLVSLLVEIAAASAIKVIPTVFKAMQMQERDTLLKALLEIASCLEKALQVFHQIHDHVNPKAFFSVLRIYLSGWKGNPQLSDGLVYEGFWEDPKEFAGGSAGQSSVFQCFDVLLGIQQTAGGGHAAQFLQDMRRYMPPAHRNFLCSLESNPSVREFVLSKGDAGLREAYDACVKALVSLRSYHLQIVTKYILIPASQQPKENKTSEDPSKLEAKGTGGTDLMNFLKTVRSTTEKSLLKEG
Experimental: Absorbance spectra (250–480 nm) were measured immediately after addition of compound LBJ-10 (20 µM in 0.5% DMSO) to IDO1 (5 µM) in phosphate buffer (pH 6.5) using a Tecan Safire2 microplate reader.
A UV–visible spectra study was performed to evaluate the binding of the representative compound LBJ-10 (Figure 11). The absorption spectrum of the haeme group is highly sensitive to the changes in the polarity of haeme surrounding upon the ligand or substrate binding, leading to the change of spectra properties of the haeme. The UV–visible spectra of ferric IDO1 was measured in the presence and absence of compound LBJ-10.

IDO1 [1] = target: T2, IDO1 (Homo sapiens, UniProt P14902); assay: Enzyme-based IDO1 activity assay; type: biochemical; details: purified human IDO1 enzyme; read-out: Enzymatic assay IC50 (hIDO1)
T2 construct: made in house
T2 sequence (P14902 whole entry): as above

IDO1 [2] = target: T2, IDO1; assay: Determination of the inhibition type (rate V against enzyme amount E); type: biochemical; details: 1 µM inhibitor, 50 µM L-tryptophan
Experimental: The standard assay mixture (1 ml) contained 50 mM potassium phosphate buffer (pH = 6.5), 25 mM neutralised ascorbic acid, 10 µM methylene blue, 100 µg/mL catalase, 50 µM L-Trp, DMSO (0.5%), and eight different concentrations of IDO1. In addition, 1 µM LBJ-10 solution was added into the mixture. The reaction, at 37 °C, was started by the addition of the substrate and terminated after 60 min by adding 200 µL of 30% (w/v) trichloroacetic acid and further incubated at 50 °C for 30 min to hydrolyse N-formylkynurenine to produce kynurenine. After centrifugation at 12,000 rpm for 15 min at 20 °C, kynurenine in the supernatant (1 mL) was measured by a HPLC system with a reversed phase column (4.6 mm × 15 cm) of GL Sciences Inc. The mobile phase was 10 mM ammonium acetate containing 10% (w/v) methanol, and kynurenine was detected by absorbance at 360 nm. All determinations were carried out in duplicate. The data presented are average values. Based on the results of the activity assay, a function of rate ([V]) against enzyme amount ([E]) was proposed.
We also carried the additional experiment to determine the reversibility of compound LBJ-10. Detailed kinetics analysis was performed on LBJ-10 based on plotting a function of the rate (V) against the enzyme amount ([E]) (Figure 12(A))[58]^,[59]. […]

Soret peak of ferric IDO1 in the presence of compound (ferric IDO1): 416 nm
IC50 (IDO1 [1]): 840 ± 330 nM
Inhibition type (reversibility) (IDO1 [2]): reversible inhibitor
Structure (SMILES): N#Cc1ccc(C(F)(F)F)nc1SCC(=O)Nc1ccc(F)c(Cl)c1 [LBJ-10, N-(3-chloro-4-fluorophenyl)-2-((3-cyano-6-(trifluoromethyl)pyridin-2-yl)thio) acetamide]
